We go through 54 compounds from patent US8546579B2, “Bicycloheteroaryl compounds as P2X7 modulators and uses thereof” (Evotec (US) Inc., priority 2006, dated 2013).

pIC50: −log10 of the molar value.

The target in one assay is T1, P2X7 receptor (Homo sapiens, UniProt Q99572).
T1 construct: host or cells: THP-1 cells differentiated with LPS and IFN-γ
T1 sequence (Q99572 1-595): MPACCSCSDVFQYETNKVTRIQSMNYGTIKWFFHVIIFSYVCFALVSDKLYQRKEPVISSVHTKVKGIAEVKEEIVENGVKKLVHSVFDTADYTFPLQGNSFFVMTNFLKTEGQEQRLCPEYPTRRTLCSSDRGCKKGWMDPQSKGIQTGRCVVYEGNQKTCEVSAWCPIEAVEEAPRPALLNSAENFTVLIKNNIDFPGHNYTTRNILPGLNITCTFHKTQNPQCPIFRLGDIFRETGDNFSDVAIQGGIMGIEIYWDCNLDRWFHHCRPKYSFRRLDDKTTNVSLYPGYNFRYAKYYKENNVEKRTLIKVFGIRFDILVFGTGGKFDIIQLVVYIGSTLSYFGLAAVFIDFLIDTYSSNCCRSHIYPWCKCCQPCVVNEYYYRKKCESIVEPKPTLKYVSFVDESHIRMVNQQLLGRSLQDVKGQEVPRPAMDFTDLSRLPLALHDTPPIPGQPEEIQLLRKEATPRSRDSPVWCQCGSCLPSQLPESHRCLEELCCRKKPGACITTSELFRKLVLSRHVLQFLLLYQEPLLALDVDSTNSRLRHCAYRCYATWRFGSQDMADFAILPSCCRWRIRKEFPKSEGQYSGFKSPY
Briefly: IL-1β release assay in differentiated THP-1 cells stimulated with BzATP (Example 9). The assay is classed as cell-based. The settings on record: 0.1 μM compound; differentiated THP-1 cells, BzATP 250 uM; '*' class symbols; read-out: IL-1β % Inhib. (asterisk classes, 0.1 μM). Here is the method: THP-1 cells (ATCC Cat # 285-IF-100) are plated in 96 well plates at a concentration of 200,000 cells per well and allowed to differentiate in RPMI-1640 media (ATCC Cat # 30-2001) containing 10% FBS, 100 IU/mL penicillin, 100 ug/mL streptomycin, 100 ng/mL LPS and 100 ng/mL IFN-γ for 16 hours. Following differentiation, the cells are treated for an additional 2 hours in RPMI-1640 media containing 100 IU/mL penicillin, 100 ug/mL streptomycin and fresh LPS at 100 ng/mL. The cells are then pretreated for 30 minutes with the compound of interest at the appropriate concentration in RPMI media containing 100 IU/mL penicillin, 100 ug/mL streptomycin. Following the pretreatment 2′,3′-O-(4-benzoylbenzoyl)-adenosine 5′-triphosphate (Sigma Aldrich Cat # B6396) is added to a final concentration of 250 uM and the cells are incubated for an additional 45 minutes. 30 uL of cell supernatant is then collected and IL-1β levels determined via ELISA (R&D systems Cat. # HSLB50) according to manufacturer's recommendations using the Tecan Safire plate reader. Background adjusted IL-1β levels of drug treated and non-treated cells are used to calculate the percent inhibition.
The compounds set forth in Table 1 were tested for activity in a cellular model as described herein. Specifically, cells were pretreated with differing amounts of the compound under test and released IL-1β determined as in Example 9, above. Measurements were made and IC50 values, presented in Table 2, below, were determined by fitting the data to a four parameter logistic equation using GraphPad Prism software (GraphPad Software, Inc). The equation may be expressed by the following formula: Y=Bottom+(Top−Bottom)/(1+10^((Log EC50−X)*HillSlope)) Where X is the logarithm of concentration, Y is the response and Y starts at Bottom and goes to Top with a sigmoid shape.
Consider `O=C(Nc1cccc2c(=O)n(CC3CCOCC3)ccc12)c1ccc(-c2ccccc2)o1` [Compound 1026], for which the inhibition at 0.1 µM fell in the range of 26 to 50%.
In the case of `CC1CCC(C(=O)Nc2cccc3c(=O)n(CCN(C)C)ccc23)CC1` (stereo not drawn) [Compound 1034], the inhibition at 0.1 µM fell in the range of 26 to 50%.
Take `CN(C)CCn1ccc2c(NC(=O)c3ccc(-c4ccccc4)o3)cccc2c1=O` [Compound 1035]: the inhibition at 0.1 µM was in the range of 0 to 25%.
For the compound `COc1ccc(C(=O)Nc2cccc3c(=O)n(CCN4CCOCC4)ccc23)c(C)c1` [Compound 1039], the inhibition at 0.1 µM is 0 to 25%.
As for `COc1cccc(CCC(=O)Nc2cccc3c(=O)n(CCN4CCOCC4)ccc23)c1` [Compound 1041], the inhibition at 0.1 µM was 0 to 25%.
Consider `CC1CCC(C(=O)Nc2cccc3c(=O)n(CC(C)(C)C)ccc23)CC1` (stereo not drawn) [Compound 1047], for which the inhibition at 0.1 µM lay within 0 to 25%.
As for `Cc1ccccc1CCC(=O)Nc1cccc2c(=O)n(CC(C)(C)C)ccc12` [Compound 1048], the inhibition at 0.1 µM fell in the range of 0 to 25%.
Take `Cc1ccccc1CCC(=O)Nc1cccc2c(=O)n(C)ccc12` [Compound 1057]: the inhibition at 0.1 µM was 0 to 25%.
On to `CCOc1ccc(C(=O)Nc2cccc3c(=O)n(CCOC)ccc23)c(O)c1` [Compound 1059], for which the inhibition at 0.1 µM was 0 to 25%.
On the same count and under the same terms, the figure for `COCCn1ccc2c(NC(=O)CCc3ccccc3C)cccc2c1=O` [Compound 1062] is 26 to 50%; for `COCCn1ccc2c(NC(=O)c3ccc(-c4ccccc4)o3)cccc2c1=O` [Compound 1063] it is 0 to 25%.
As to `COCCn1ccc2c(NC(=O)CCc3cccc(OC)c3)cccc2c1=O` [Compound 1064], the inhibition at 0.1 µM is 0 to 25%.

The same assay, now with this note: 0.3 μM compound; differentiated THP-1 cells, BzATP 250 uM; '+' class symbols; read-out: IL-1β % Inhib. @ 0.3 μM.
Regarding `COc1ccc(CC(=O)Nc2cccc3c(=O)n(CCN(C)C)ccc23)c(OC)c1` [Compound 1022], the inhibition at 0.3 µM lay in the range of 0 to 25%.
The same measure, in the same setting: the result for `CC(=O)OCCn1ccc2c(NC(=O)Cc3ccc(Cl)c(Cl)c3)cccc2c1=O` [Compound 1023] reads at least 76%; that for `Cn1ccc2c(NC(=O)CC3CCCCCC3)cccc2c1=O` [Compound 1024, 2-Cycloheptyl-N-(2-methyl-1-oxo-1,2-dihydro-isoquinolin-5-yl)-acetamide], at least 76%.
Turning to `CCOc1ccc(C(=O)Nc2cccc3c(=O)n(CC4CCOCC4)ccc23)c(O)c1` [Compound 1025], the inhibition at 0.3 µM is 0 to 25%.
As for `COc1cccc(CCC(=O)Nc2cccc3c(=O)n(CC4CCOCC4)ccc23)c1` [Compound 1027], the inhibition at 0.3 µM fell in the range of 0 to 25%.
Still for that read-out and setting: the figure for `Cc1ccc(C)c(CC(=O)Nc2cccc3c(=O)n(CC4CCOCC4)ccc23)c1` [Compound 1028] is 0 to 25%; for `COc1ccc(C(=O)Nc2cccc3c(=O)n(CC4CCOCC4)ccc23)cc1Cl` [Compound 1029] it is 0 to 25%; for `CCOc1cccc(C(=O)Nc2cccc3c(=O)n(CC4CCOCC4)ccc23)c1` [Compound 1030] it is 0 to 25%.
Same read-out and setting: the figure for `O=C(CCc1ccccc1Cl)Nc1cccc2c(=O)n(CC3CCOCC3)ccc12` [Compound 1031] is 26 to 50%.
With `O=C(CCc1ccc2c(c1)OCO2)Nc1cccc2c(=O)n(CC3CCOCC3)ccc12` [Compound 1032], the inhibition at 0.3 µM fell in the range of 0 to 25%.
In the case of `Cc1cc(C(=O)Nc2cccc3c(=O)n(CC4CCOCC4)ccc23)ccc1Cl` [Compound 1033], the inhibition at 0.3 µM was in the range of 0 to 25%.
Same read-out and setting: the figure for `Cc1cc(C)c(CC(=O)Nc2cccc3c(=O)n(CCN(C)C)ccc23)c(C)c1` [Compound 1036] is 0 to 25%; for `CN(C)CCn1ccc2c(NC(=O)CCc3ccccc3Cl)cccc2c1=O` [Compound 1037] it is 0 to 25%; for `CN(C)CCn1ccc2c(NC(=O)CCc3ccc4c(c3)OCO4)cccc2c1=O` [Compound 1038] it is 0 to 25%.
Turning to `O=C(Nc1cccc2c(=O)n(CCN3CCOCC3)ccc12)c1ccc(-c2ccccc2)o1` [Compound 1040], the inhibition at 0.3 µM fell in the range of 0 to 25%.
Same read-out and setting: the figure for `Cc1ccc(C)c(CC(=O)Nc2cccc3c(=O)n(CCN4CCOCC4)ccc23)c1` [Compound 1042] is 0 to 25%.
Turning to `COc1ccc(C(=O)Nc2cccc3c(=O)n(CCN4CCOCC4)ccc23)cc1Cl` [Compound 1043], the inhibition at 0.3 µM was in the range of 0 to 25%.
As for `CCOc1cccc(C(=O)Nc2cccc3c(=O)n(CCN4CCOCC4)ccc23)c1` [Compound 1044], the inhibition at 0.3 µM lay in the range of 0 to 25%.
Turning to `O=C(CCc1ccccc1Cl)Nc1cccc2c(=O)n(CCN3CCOCC3)ccc12` [Compound 1045], the inhibition at 0.3 µM lay within 0 to 25%.
Regarding `O=C(CCc1ccc2c(c1)OCO2)Nc1cccc2c(=O)n(CCN3CCOCC3)ccc12` [Compound 1046], the inhibition at 0.3 µM lay within 0 to 25%.
The same measure, in the same setting: the result for `COc1cccc(CCC(=O)Nc2cccc3c(=O)n(CC(C)(C)C)ccc23)c1` [Compound 1049] reads 0 to 25%; that for `Cc1cc(C)c(CC(=O)Nc2cccc3c(=O)n(CC(C)(C)C)ccc23)c(C)c1` [Compound 1050], 0 to 25%; that for `Cc1ccc(C)c(CC(=O)Nc2cccc3c(=O)n(CC(C)(C)C)ccc23)c1` [Compound 1051], 0 to 25%.
On to `CCOc1cccc(C(=O)Nc2cccc3c(=O)n(CC(C)(C)C)ccc23)c1` [Compound 1053], for which the inhibition at 0.3 µM is 0 to 25%.
For `CC(C)(C)Cn1ccc2c(NC(=O)CCc3ccccc3Cl)cccc2c1=O` [Compound 1054], the inhibition at 0.3 µM is 0 to 25%.
Take `CC(C)(C)Cn1ccc2c(NC(=O)CCc3ccc4c(c3)OCO4)cccc2c1=O` [Compound 1055]: the inhibition at 0.3 µM is 0 to 25%.
`Cc1cc(C(=O)Nc2cccc3c(=O)n(CC(C)(C)C)ccc23)ccc1Cl` [Compound 1056]: the inhibition at 0.3 µM lay within 0 to 25%.
For `COc1cccc(CCC(=O)Nc2cccc3c(=O)n(C)ccc23)c1` [Compound 1058], the inhibition at 0.3 µM lay in the range of 0 to 25%.
For the compound `COCCn1ccc2c(NC(=O)c3ccc(OC)cc3C)cccc2c1=O` [Compound 1060], the inhibition at 0.3 µM was in the range of 0 to 25%.
`COCCn1ccc2c(NC(=O)C3CCC(C)CC3)cccc2c1=O` (stereo not drawn) [Compound 1061]: the inhibition at 0.3 µM is 0 to 25%.
Consider `COCCn1ccc2c(NC(=O)Cc3c(C)cc(C)cc3C)cccc2c1=O` [Compound 1065], for which the inhibition at 0.3 µM was in the range of 0 to 25%.
Same read-out and setting: the result for `COCCn1ccc2c(NC(=O)Cc3cc(C)ccc3C)cccc2c1=O` [Compound 1066] reads 0 to 25%; that for `COCCn1ccc2c(NC(=O)c3ccc(OC)c(Cl)c3)cccc2c1=O` [Compound 1067], 26 to 50%; that for `CCOc1cccc(C(=O)Nc2cccc3c(=O)n(CCOC)ccc23)c1` [Compound 1068], 0 to 25%.
As for `COCCn1ccc2c(NC(=O)CCc3ccccc3Cl)cccc2c1=O` [Compound 1069], the inhibition at 0.3 µM is at least 76%.
On to `COCCn1ccc2c(NC(=O)CCc3ccc4c(c3)OCO4)cccc2c1=O` [Compound 1070], for which the inhibition at 0.3 µM fell in the range of 0 to 25%.
The same measure, in the same setting: the figure for `COCCn1ccc2c(NC(=O)c3ccc(Cl)c(C)c3)cccc2c1=O` [Compound 1071] is 0 to 25%; for `CCOc1ccc(C(=O)Nc2cccc3c(=O)n(Cc4cccnc4)ccc23)c(O)c1` [Compound 1072] it is 0 to 25%.
The same measure, in the same setting: the figure for `COc1ccc(C(=O)Nc2cccc3c(=O)n(Cc4cccnc4)ccc23)c(C)c1` [Compound 1073] is 0 to 25%.
For the compound `O=C(Nc1cccc2c(=O)n(Cc3cccnc3)ccc12)c1ccc(-c2ccccc2)o1` [Compound 1074], the inhibition at 0.3 µM was in the range of 0 to 25%.
On to `COc1cccc(CCC(=O)Nc2cccc3c(=O)n(Cc4cccnc4)ccc23)c1` [Compound 1075], for which the inhibition at 0.3 µM was in the range of 0 to 25%.
Still for that read-out and setting: the result for `Cc1cc(C)c(CC(=O)Nc2cccc3c(=O)n(Cc4cccnc4)ccc23)c(C)c1` [Compound 1076] reads 0 to 25%.

Still in this assay, the particulars now being: THP-1 cells, BzATP-stimulated IL-1β release, four parameter logistic fit.
For `COc1ccc(CC(=O)Nc2cccc3c(=O)n(CCN(C)C)ccc23)c(OC)c1` [Compound 1022], the pIC50 – broadly, −log10 of the IC50, conventionally taken in molar units – is under 6.00.
Still for that read-out and setting: the result for `CC(=O)OCCn1ccc2c(NC(=O)Cc3ccc(Cl)c(Cl)c3)cccc2c1=O` [Compound 1023] reads 7.27.
Consider `Cn1ccc2c(NC(=O)CC3CCCCCC3)cccc2c1=O` [Compound 1024, 2-Cycloheptyl-N-(2-methyl-1-oxo-1,2-dihydro-isoquinolin-5-yl)-acetamide], for which the pIC50 was 7.50.
